Measurements as given in PubChem BioAssay AID1963433 (Molecular Pharmacology Branch, DTP, NCI, 2024).

System: 772245-204-R-J1-PDC complex spheroid growth
Assay: Anticancer human tumor 772245-204-R-J1-PDC patient-derived rhabdomyosarcoma cell line growth inhibition [Asc]
Conditions: for IC50: curve of first compound; for viability, T/C: stronger effect = lower value; active means viability on the fitted dose curve at most 10% of control; inactive means the rest
How it was run: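 Concentration series start at each agent's clinical Cmax, or at 10 microM when none is established, and drop in half-log steps; agents are applied alone or together to complex spheroids built with HUVEC and hMSC.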

[1] = second compound 0.03 µM, first compound 0.00316 µM
[2] = second compound 0.03 µM, first compound 0.01 µM
[3] = second compound 0.03 µM, first compound 0.0316 µM
[4] = second compound 0.03 µM, first compound 0.1 µM
[5] = second compound 0.0949 µM, first compound 0.00316 µM
[6] = second compound 0.0949 µM, first compound 0.01 µM
[7] = second compound 0.0949 µM, first compound 0.0316 µM
[8] = second compound 0.0949 µM, first compound 0.1 µM
[9] = second compound 0.3 µM, first compound 0.00316 µM
[10] = second compound 0.3 µM, first compound 0.01 µM
[11] = second compound 0.3 µM, first compound 0.0316 µM
[12] = second compound 0.3 µM, first compound 0.1 µM
[13] = second compound 0.949 µM, first compound 0.00316 µM
[14] = second compound 0.949 µM, first compound 0.01 µM
[15] = second compound 0.949 µM, first compound 0.0316 µM
[16] = second compound 0.949 µM, first compound 0.1 µM
[17] = second compound 3 µM, first compound 0.00316 µM
[18] = second compound 3 µM, first compound 0.01 µM
[19] = second compound 3 µM, first compound 0.0316 µM
[20] = second compound 3 µM, first compound 0.1 µM
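Further: compound exposure lasted seven days.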
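Wherever viability, T/C is given: 100% = DMSO vehicle control viability.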

COc1c(OCCCN2CCOCC2)ccc2c3n(c(=NC(=O)c4cnc(N)nc4)nc12)CCN3 + CCN1C(C(=O)NC23CCC(C(=O)O)(CC2)CC3)C(c2cccc(Cl)c2F)C2(C(=O)Nc3cc(Cl)ccc32)C12CCCCC2
188 nM: IC50 (second compound 0.03 µM)
90.5 nM: IC50 (second compound 0.3 µM)
146 nM: IC50 (second compound 0.0949 µM)
51.4 nM: IC50 (second compound 3 µM)
139 nM: IC50 (second compound 0.949 µM)
inactive: viability, T/C [1] 99.5% | viability, T/C [2] 105% | viability, T/C [3] 83.7% | viability, T/C [4] 61.6% | viability, T/C (second compound 0.03 µM, first compound 0.316 µM) 41.8% | viability, T/C (second compound 0.03 µM, first compound 1 µM) 32.3% | viability, T/C [5] 105% | viability, T/C [6] 97.6% | viability, T/C [7] 80% | viability, T/C [8] 57.5% | viability, T/C (second compound 0.0949 µM, first compound 0.316 µM) 35.6% | viability, T/C (second compound 0.0949 µM, first compound 1 µM) 24.8% | viability, T/C [9] 103% | viability, T/C [10] 109% | viability, T/C [11] 84.7% | viability, T/C [12] 46.6% | viability, T/C (second compound 0.3 µM, first compound 0.316 µM) 39.1% | viability, T/C (second compound 0.3 µM, first compound 1 µM) 30% | viability, T/C [13] 105% | viability, T/C [14] 99% | viability, T/C [15] 77.2% | viability, T/C [16] 55.2% | viability, T/C (second compound 0.949 µM, first compound 0.316 µM) 37.3% | viability, T/C (second compound 0.949 µM, first compound 1 µM) 23% | viability, T/C [17] 69.3% | viability, T/C [18] 78.5% | viability, T/C [19] 57.4% | viability, T/C [20] 38.1% | viability, T/C (second compound 3 µM, first compound 0.316 µM) 29.5% | viability, T/C (second compound 3 µM, first compound 1 µM) 26.6%

NC(=O)C(=Cn1cnc(-c2cc(C(F)(F)F)cc(C(F)(F)F)c2)n1)c1cncnc1 + CCN1C(C(=O)NC23CCC(C(=O)O)(CC2)CC3)C(c2cccc(Cl)c2F)C2(C(=O)Nc3cc(Cl)ccc32)C12CCCCC2
27.3 nM: IC50 (second compound 0.0949 µM)
inactive: viability, T/C (second compound 0.03 µM, first compound 0.000949 µM) 88.9% | viability, T/C (second compound 0.03 µM, first compound 0.003 µM) 96.5% | viability, T/C (second compound 0.03 µM, first compound 0.00949 µM) 97.1% | viability, T/C (second compound 0.03 µM, first compound 0.03 µM) 92.4% | viability, T/C (second compound 0.03 µM, first compound 0.0949 µM) 38.5% | viability, T/C (second compound 0.03 µM, first compound 0.3 µM) 40.5% | viability, T/C (second compound 0.0949 µM, first compound 0.000949 µM) 103% | viability, T/C (second compound 0.0949 µM, first compound 0.003 µM) 93.1% | viability, T/C (second compound 0.0949 µM, first compound 0.00949 µM) 88.5% | viability, T/C (second compound 0.0949 µM, first compound 0.03 µM) 44.5% | viability, T/C (second compound 0.0949 µM, first compound 0.0949 µM) 37.2% | viability, T/C (second compound 0.0949 µM, first compound 0.3 µM) 22.6% | viability, T/C (second compound 0.3 µM, first compound 0.000949 µM) 94.7% | viability, T/C (second compound 0.3 µM, first compound 0.003 µM) 105% | viability, T/C (second compound 0.3 µM, first compound 0.00949 µM) 85.2% | viability, T/C (second compound 0.3 µM, first compound 0.03 µM) 62.8% | viability, T/C (second compound 0.3 µM, first compound 0.0949 µM) 31.1% | viability, T/C (second compound 0.3 µM, first compound 0.3 µM) 30.4% | viability, T/C (second compound 0.949 µM, first compound 0.000949 µM) 92.8% | viability, T/C (second compound 0.949 µM, first compound 0.003 µM) 88.8% | viability, T/C (second compound 0.949 µM, first compound 0.00949 µM) 84.7% | viability, T/C (second compound 0.949 µM, first compound 0.03 µM) 46.4% | viability, T/C (second compound 0.949 µM, first compound 0.0949 µM) 28.8% | viability, T/C (second compound 0.949 µM, first compound 0.3 µM) 18.1% | viability, T/C (second compound 3 µM, first compound 0.000949 µM) 69.9% | viability, T/C (second compound 3 µM, first compound 0.003 µM) 66.9% | viability, T/C (second compound 3 µM, first compound 0.00949 µM) 69.5% | viability, T/C (second compound 3 µM, first compound 0.03 µM) 17.7% | viability, T/C (second compound 3 µM, first compound 0.0949 µM) 10.8% | viability, T/C (second compound 3 µM, first compound 0.3 µM) 15.9%
14.5 nM: IC50 (second compound 3 µM)
28.2 nM: IC50 (second compound 0.949 µM)
47.3 nM: IC50 (second compound 0.3 µM)
75.5 nM: IC50 (second compound 0.03 µM)

NC1CCC(NC2CC2c2ccccc2)CC1 (stereo not given) + CCN1C(C(=O)NC23CCC(C(=O)O)(CC2)CC3)C(c2cccc(Cl)c2F)C2(C(=O)Nc3cc(Cl)ccc32)C12CCCCC2
inactive: viability, T/C (second compound 0.03 µM, first compound 0.000316 µM) 103% | viability, T/C (second compound 0.03 µM, first compound 0.001 µM) 94.6% | viability, T/C [1] 100% | viability, T/C [2] 86.5% | viability, T/C [3] 108% | viability, T/C [4] 98.1% | viability, T/C (second compound 0.0949 µM, first compound 0.000316 µM) 96.3% | viability, T/C (second compound 0.0949 µM, first compound 0.001 µM) 96.3% | viability, T/C [5] 90.3% | viability, T/C [6] 92.5% | viability, T/C [7] 84.9% | viability, T/C [8] 93.5% | viability, T/C (second compound 0.3 µM, first compound 0.000316 µM) 106% | viability, T/C (second compound 0.3 µM, first compound 0.001 µM) 80.2% | viability, T/C [9] 101% | viability, T/C [10] 85.5% | viability, T/C [11] 111% | viability, T/C [12] 89.8% | viability, T/C (second compound 0.949 µM, first compound 0.000316 µM) 95.2% | viability, T/C (second compound 0.949 µM, first compound 0.001 µM) 80.8% | viability, T/C [13] 83.6% | viability, T/C [14] 86.9% | viability, T/C [15] 95.1% | viability, T/C [16] 96.3% | viability, T/C (second compound 3 µM, first compound 0.000316 µM) 70.2% | viability, T/C (second compound 3 µM, first compound 0.001 µM) 65.8% | viability, T/C [17] 73.2% | viability, T/C [18] 77.9% | viability, T/C [19] 73.1% | viability, T/C [20] 75.4%
> 100 nM: IC50 (second compound 0.03 µM) | IC50 (second compound 0.0949 µM) | IC50 (second compound 0.3 µM) | IC50 (second compound 0.949 µM) | IC50 (second compound 3 µM)
